Columns and labels:
PDK1 = PDK1 (Homo sapiens, UniProt O15530); experiment: biochemical
[1] = system: influenza A virus WSN/33 (H1N1); parameters: species or system BALB/c mice; details: mouse, in vivo
D2 [2] = target: T1, D2 (Homo sapiens, UniProt P14416); experiment: cell-based
[3] = system: Influenza virus A/WSN/33 (H1N1); experiment: microbe, parasite or virus in culture; type: cell-based; details: MDCK, read-out: EC50 (mean ± SD)
CDK2 = CDK2 (Homo sapiens, UniProt P24941); experiment: biochemical
[4] = system: H1N1 and H3N2 influenza A virus strains; experiment: in vitro; details: dog
Beta1 = Beta1 (Homo sapiens, UniProt P08588); experiment: cell-based
A/Anhui/01/2013 (H7N9) = experiment: microbe, parasite or virus in culture; type: cell-based, avian influenza virus; details: Influenza A virus, H7N9, MDCK, read-out: IC50 (mean ± SD)
SRC = SRC (Homo sapiens, UniProt P12931); experiment: biochemical
MAP4K4 = MAP4K4 (Homo sapiens, UniProt O95819); experiment: biochemical
22 GPCR targets = type: cell-based, human; details: read-out: IC50 (antagonist screening)
CHK1 = CHK1 (Homo sapiens, UniProt O14757); experiment: biochemical
JNK1 = JNK1 (Homo sapiens, UniProt P45983); experiment: biochemical
op-mu = op-mu (Homo sapiens, UniProt P35372); experiment: cell-based
Alpha2a = Alpha2a (Homo sapiens, UniProt P08913); experiment: cell-based
[5] = system: influenza A virus WSN/33 (H1N1); parameters: species or system BALB/c mice; details: mouse, in vivo; remark: listed apart in the source
DYRK3 = DYRK3 (Homo sapiens, UniProt O43781); experiment: biochemical
A/PR/8/34 (H1N1) = system: A/PR/8/34 (H1N1); parameters: species or system BALB/c mice; details: mouse, in vivo
[6] = system: A/Guangzhou/39715/2014 (H5N6); experiment: microbe, parasite or virus in culture; type: cell-based, avian influenza virus; details: unidentified influenza virus, H5N6, MDCK, read-out: IC50 (mean ± SD)
TAOK2 = TAOK2 (Homo sapiens, UniProt Q9UL54); experiment: biochemical
in vitro [7] = details: African green monkey
in vitro [8] = details: human
FGFR1 = FGFR1 (Homo sapiens, UniProt P11362); experiment: biochemical
CB2 = CB2 (Homo sapiens, UniProt P34972); experiment: cell-based
PKA = PKA (Homo sapiens, UniProt P17612); experiment: biochemical
in vitro [9] = details: dog, CC50 (mean ± SD)
V1a = V1a (Homo sapiens, UniProt P37288); experiment: cell-based
CB1 = CB1 (Homo sapiens, UniProt P21554); experiment: cell-based
D2 [10] = target: T1, D2; experiment: cell-based; remark: listed apart in the source
in vivo [11] = details: female, BALB/c, mouse, po
GSK3 beta = GSK3 beta (Homo sapiens, UniProt P49841); experiment: biochemical
in vivo [12] = details: both, beagle, dog
Aurora A = Aurora A (Homo sapiens, UniProt O14965); experiment: biochemical
M1 = M1 (Homo sapiens, UniProt P11229); experiment: cell-based
in vitro [13] = details: human; remark: listed apart in the source
Eta = Eta (Homo sapiens, UniProt P25101); experiment: cell-based
[14] = 10,000 nM, read-out: Inhibition at Maximum Concentration (%)

T1 sequence (P14416 whole entry): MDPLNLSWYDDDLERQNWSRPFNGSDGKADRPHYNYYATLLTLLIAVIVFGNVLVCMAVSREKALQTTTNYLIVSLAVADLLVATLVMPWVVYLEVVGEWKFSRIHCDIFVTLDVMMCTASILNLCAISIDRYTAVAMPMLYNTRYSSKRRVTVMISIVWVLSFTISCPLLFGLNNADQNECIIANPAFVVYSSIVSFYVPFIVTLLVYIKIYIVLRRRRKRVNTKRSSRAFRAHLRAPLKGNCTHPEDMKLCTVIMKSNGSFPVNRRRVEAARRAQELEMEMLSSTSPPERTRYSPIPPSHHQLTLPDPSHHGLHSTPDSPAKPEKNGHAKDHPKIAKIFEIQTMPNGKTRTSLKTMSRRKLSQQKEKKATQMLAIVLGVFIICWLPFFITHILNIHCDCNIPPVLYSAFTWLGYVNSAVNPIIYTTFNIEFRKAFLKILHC
Beta1, sequence (P08588 whole entry): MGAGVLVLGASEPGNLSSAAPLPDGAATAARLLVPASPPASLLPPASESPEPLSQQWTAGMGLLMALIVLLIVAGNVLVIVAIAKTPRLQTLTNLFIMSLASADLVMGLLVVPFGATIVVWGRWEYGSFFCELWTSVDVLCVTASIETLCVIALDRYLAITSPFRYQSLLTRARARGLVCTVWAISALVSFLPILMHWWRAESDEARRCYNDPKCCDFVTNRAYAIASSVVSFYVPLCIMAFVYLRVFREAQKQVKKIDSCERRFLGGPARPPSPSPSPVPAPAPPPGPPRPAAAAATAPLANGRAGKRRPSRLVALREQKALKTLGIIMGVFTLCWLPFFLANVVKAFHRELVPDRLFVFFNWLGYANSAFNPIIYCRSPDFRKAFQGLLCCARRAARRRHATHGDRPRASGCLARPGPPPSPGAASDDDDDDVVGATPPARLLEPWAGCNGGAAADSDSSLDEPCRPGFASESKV
V1a, sequence (P37288 whole entry): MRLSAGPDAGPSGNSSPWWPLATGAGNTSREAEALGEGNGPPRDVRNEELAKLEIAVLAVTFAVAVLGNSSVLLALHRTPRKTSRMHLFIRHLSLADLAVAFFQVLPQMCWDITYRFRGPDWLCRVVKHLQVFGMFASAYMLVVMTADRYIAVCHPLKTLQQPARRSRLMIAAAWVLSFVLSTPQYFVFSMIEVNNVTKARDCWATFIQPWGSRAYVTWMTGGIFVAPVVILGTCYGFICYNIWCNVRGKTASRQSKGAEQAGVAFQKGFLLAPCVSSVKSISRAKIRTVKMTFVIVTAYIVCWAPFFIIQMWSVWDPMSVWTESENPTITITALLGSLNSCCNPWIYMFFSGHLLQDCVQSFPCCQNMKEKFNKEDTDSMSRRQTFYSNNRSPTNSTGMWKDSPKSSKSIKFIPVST
Alpha2a, sequence (P08913 whole entry): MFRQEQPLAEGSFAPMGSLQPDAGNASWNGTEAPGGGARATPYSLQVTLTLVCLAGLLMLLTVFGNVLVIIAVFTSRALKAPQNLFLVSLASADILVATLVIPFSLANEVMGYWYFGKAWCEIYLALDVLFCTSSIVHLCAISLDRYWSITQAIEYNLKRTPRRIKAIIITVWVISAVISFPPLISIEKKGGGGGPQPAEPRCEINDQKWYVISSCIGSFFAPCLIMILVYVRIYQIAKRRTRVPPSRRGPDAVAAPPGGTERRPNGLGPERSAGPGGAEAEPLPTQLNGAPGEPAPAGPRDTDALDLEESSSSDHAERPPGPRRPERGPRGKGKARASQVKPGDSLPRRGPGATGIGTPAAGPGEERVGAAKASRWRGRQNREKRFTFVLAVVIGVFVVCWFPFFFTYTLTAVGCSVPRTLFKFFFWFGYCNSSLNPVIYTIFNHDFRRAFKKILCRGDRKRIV
M1, sequence (P11229 whole entry): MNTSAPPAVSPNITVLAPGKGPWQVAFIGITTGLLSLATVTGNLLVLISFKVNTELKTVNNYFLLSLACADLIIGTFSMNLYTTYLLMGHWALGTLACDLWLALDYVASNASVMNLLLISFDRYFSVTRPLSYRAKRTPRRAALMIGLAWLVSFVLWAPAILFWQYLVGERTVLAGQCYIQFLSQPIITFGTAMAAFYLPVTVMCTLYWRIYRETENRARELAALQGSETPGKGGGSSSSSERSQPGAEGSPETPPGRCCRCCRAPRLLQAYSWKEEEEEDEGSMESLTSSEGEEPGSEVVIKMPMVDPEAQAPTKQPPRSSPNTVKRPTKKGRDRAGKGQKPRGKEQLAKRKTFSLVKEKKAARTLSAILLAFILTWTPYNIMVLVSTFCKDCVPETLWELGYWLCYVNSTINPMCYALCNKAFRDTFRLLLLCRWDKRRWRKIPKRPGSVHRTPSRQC
CB1, sequence (P21554 whole entry): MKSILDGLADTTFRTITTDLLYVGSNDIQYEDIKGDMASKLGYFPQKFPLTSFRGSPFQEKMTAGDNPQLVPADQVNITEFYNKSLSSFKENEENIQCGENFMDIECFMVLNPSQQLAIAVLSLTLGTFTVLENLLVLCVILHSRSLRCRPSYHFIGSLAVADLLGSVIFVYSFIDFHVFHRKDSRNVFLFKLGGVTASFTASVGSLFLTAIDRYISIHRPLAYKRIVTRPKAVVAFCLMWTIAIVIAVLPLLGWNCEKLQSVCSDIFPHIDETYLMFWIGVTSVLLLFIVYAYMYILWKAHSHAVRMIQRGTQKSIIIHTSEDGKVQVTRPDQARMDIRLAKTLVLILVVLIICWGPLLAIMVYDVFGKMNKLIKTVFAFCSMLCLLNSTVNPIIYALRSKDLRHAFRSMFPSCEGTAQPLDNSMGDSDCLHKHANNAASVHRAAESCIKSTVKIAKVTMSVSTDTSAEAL
CB2, sequence (P34972 whole entry): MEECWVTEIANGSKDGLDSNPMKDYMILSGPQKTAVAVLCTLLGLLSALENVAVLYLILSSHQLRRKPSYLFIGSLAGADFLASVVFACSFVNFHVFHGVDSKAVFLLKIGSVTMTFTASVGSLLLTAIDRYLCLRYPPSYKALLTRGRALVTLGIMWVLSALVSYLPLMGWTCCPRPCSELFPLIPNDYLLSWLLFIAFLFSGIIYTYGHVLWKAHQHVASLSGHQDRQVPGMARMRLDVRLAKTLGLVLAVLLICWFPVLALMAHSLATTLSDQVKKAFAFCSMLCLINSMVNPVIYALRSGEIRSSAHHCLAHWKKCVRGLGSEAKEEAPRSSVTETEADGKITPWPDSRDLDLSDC
Eta, sequence (P25101 21-427): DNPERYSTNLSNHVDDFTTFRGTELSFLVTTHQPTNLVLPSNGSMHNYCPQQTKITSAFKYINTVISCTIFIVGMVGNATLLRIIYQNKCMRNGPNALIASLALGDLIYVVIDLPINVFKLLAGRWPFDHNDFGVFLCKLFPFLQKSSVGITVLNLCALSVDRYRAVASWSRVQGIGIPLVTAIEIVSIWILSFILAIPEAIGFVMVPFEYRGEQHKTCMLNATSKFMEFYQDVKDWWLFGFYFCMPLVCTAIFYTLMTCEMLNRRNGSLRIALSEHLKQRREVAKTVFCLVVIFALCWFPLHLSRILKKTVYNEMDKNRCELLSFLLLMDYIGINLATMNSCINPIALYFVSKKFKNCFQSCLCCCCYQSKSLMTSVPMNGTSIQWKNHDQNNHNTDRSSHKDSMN
op-mu, sequence (P35372 whole entry): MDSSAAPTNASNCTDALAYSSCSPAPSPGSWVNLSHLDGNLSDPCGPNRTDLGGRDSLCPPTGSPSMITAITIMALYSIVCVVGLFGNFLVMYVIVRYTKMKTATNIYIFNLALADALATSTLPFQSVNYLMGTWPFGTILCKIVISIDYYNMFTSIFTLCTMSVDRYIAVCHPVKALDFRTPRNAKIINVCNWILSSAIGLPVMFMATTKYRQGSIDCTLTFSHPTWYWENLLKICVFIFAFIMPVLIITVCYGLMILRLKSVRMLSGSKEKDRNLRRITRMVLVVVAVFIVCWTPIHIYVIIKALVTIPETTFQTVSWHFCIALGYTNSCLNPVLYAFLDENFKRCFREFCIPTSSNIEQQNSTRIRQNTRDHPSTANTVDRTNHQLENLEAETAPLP
PDK1, sequence (O15530 whole entry): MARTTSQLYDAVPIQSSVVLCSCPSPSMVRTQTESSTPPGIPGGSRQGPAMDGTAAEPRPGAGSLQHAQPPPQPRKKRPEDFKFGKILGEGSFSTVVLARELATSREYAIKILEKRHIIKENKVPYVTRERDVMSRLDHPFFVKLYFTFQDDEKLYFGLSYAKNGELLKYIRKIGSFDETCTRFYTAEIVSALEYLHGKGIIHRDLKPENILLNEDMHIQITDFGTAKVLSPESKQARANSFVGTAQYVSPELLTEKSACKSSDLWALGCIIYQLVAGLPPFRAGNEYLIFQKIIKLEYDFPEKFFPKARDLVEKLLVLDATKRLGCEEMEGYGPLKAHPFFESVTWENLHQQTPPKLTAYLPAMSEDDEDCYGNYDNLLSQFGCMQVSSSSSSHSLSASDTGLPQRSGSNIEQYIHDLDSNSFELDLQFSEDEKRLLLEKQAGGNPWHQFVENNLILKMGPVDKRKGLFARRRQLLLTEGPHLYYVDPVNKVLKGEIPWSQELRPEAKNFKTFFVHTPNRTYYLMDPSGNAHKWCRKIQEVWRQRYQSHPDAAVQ
CHK1, sequence (O14757 whole entry): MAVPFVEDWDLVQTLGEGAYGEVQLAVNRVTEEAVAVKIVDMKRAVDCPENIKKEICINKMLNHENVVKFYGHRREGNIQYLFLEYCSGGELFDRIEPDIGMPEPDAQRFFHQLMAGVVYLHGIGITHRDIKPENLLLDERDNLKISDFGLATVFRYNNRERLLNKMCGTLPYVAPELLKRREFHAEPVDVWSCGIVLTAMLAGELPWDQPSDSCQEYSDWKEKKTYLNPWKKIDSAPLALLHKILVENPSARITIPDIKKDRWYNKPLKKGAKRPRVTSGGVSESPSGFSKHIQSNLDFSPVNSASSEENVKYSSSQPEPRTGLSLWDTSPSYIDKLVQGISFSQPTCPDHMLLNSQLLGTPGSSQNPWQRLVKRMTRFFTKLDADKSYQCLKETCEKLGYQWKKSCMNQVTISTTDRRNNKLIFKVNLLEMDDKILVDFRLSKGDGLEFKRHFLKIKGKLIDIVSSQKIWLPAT

With `O=C(O)[C@H]1C2CCC(CC2)[C@@H]1Nc1nc(-c2n[nH]c3ncc(F)cc23)nc(C2CC2)c1F` [ZSP1273] the IC50 (PDK1) was over 10 µM, the “animals died (of n = 8)” value [1] was “one” and the “day on which body weight of surviving mice began to recover” value [1] was 8 days. The “day on which weight of surviving mice increased gradually” value [1] was 6th, the “mice died (of n = 8)” value [1] was “no mice died” and the survival rate [1] was 100%. It also gave an IC50 (D2 [2]) of over 10 µM, an inhibition at 10 µM (D2 [2]; [14]) of 13.6% and an EC50 [3] of 0.063 ± 0.028 nM. The IC50 (CDK2) was over 10 µM, the selectivity ratio [4] was over 25000 and the IC50 (Beta1) was over 10 µM. The inhibition at 10 µM (Beta1; [14]) was -22.7%, the IC50 (A/Anhui/01/2013 (H7N9)) was 0.000627 ± 0.000312 µM and the IC50 (SRC) was over 10 µM. For the same compound, the IC50 (MAP4K4) was over 10 µM, the IC50 (22 GPCR targets) was over 10 µM and the IC50 (CHK1) was over 10 µM. For the same compound, the IC50 (JNK1) was over 10 µM, the EC50 (op-mu) was over 12 µM and the “Activity at Maximum Concentration (%)” value (op-mu; 12,000 nM) was −3.45%. For the same compound, the IC50 (Alpha2a) was over 10 µM, the inhibition at 10 µM (Alpha2a; [14]) was -9.3% and the “body weight of mice” value [5] was “did not significantly reduce the body weight”. For the same compound, the “survival rate vs vehicle” value [5] was “could improve the survival rate”, the “time of death relative to vehicle group” value [5] was “died later than those in the vehicle group” and the IC50 (DYRK3) was over 10 µM. The lung index (A/PR/8/34 (H1N1)) was “significantly decreased”, the “viral titers in the lung tissues” value (A/PR/8/34 (H1N1)) was 0 and the IC50 [6] was 0.000245 ± 3e-05 µM. It also gave an IC50 (TAOK2) of over 10 µM, a CC50 (in vitro [7]) of over 10 µM and a CC50 (in vitro [8]) of over 10 µM. The IC50 (FGFR1) was over 10 µM, the IC50 (CB2) was over 10 µM and the inhibition at 10 µM (CB2; [14]) was 42%. The IC50 (PKA) was over 10 µM, the CC50 (in vitro [9]) was 1.63 ± 0.87 µM and the EC50 (V1a) was over 12 µM. The “Activity at Maximum Concentration (%)” value (V1a; 12,000 nM) was 6.27%, the EC50 (CB1) was over 12 µM and the “Activity at Maximum Concentration (%)” value (CB1; 12,000 nM) was −12.1%. The EC50 (D2 [10]) was over 12 µM, the “Activity at Maximum Concentration (%)” value (D2 [10]; 12,000 nM) was −0.06% and the AUC(0-t) (in vivo [11]; 3 mg/kg) was 1040 ng·h/mL. It also gave a Cmax (in vivo [11]; 3 mg/kg) of 439 ng/mL, an AUC(0-t) (in vivo [11]; 10 mg/kg) of 6190 ng·h/mL and a Cmax (in vivo [11]; 10 mg/kg) of 3010 ng/mL. For the same compound, the AUC(0-t) (in vivo [11]; 30 mg/kg) was 56000 ng·h/mL, the Cmax (in vivo [11]; 30 mg/kg) was 23700 ng/mL and the IC50 (GSK3 beta) was over 10 µM. The AUC(0-t) (in vivo [12]; iv, 1 mg/kg) was 791 ± 329 ng·h/mL, the Vd (in vivo [12]; iv, 1 mg/kg) was 0.47 ± 0.0848 L/kg and the clearance (in vivo [12]; iv, 1 mg/kg) was 25.8 ± 7.6 mL/min/kg. It also gave a half-life (in vivo [12]; iv, 1 mg/kg) of 27.4 ± 10.1 min, an AUC(0-t) (in vivo [12]; po, 1 mg/kg) of 211 ± 62.4 ng·h/mL and a Cmax (in vivo [12]; po, 1 mg/kg) of 292 ± 78.2 ng/mL. For the same compound, the Tmax (in vivo [12]; po, 1 mg/kg) was 27.5 ± 6.12 min, the bioavailability (in vivo [12]; po, 1 mg/kg) was 26.7% and the AUC(0-t) (in vivo [12]; po, 5 mg/kg) was 1210 ± 641 ng·h/mL. The Cmax (in vivo [12]; po, 5 mg/kg) was 1450 ± 800 ng/mL, the Tmax (in vivo [12]; po, 5 mg/kg) was 32.5 ± 14.8 min and the AUC(0-t) (in vivo [12]; po, 15 mg/kg) was 5030 ± 1960 ng·h/mL. The Cmax (in vivo [12]; po, 15 mg/kg) was 5800 ± 2150 ng/mL, the Tmax (in vivo [12]; po, 15 mg/kg) was 27.5 ± 17.5 min and the IC50 (Aurora A) was 0.527 µM. It also gave an IC50 (M1) of over 10 µM, an inhibition at 10 µM (M1; [14]) of -0.95% and a CC50 (in vitro [13]) of over 10 µM. It also gave an IC50 (Eta) of over 10 µM and an inhibition at 10 µM (Eta; [14]) of 9.07%.
